PMC6161789, “Modeling and antitumor studies of a modified L–penetratin peptide targeting E2F in lung cancer and prostate cancer” (Oncotarget, 2018)
Ends that are not written are not given here.

How the values were obtained:
DU145 cells = experiment: Stability testing of the peptide in RPMI 1640 with 10% FBS, read out by DU145 cell viability; assay type: in vitro ADME, human; details: pre-incubation in RPMI 1640 with 10% FBS, 37°C, 24 hours; then 24 hours on DU145 cells, MTS 490 nm, triplicate
Method: Figure 4 A. D- Arg Peptide incubated in 10% FBS RPMI media at 37°C for 24 hours is resistant to proteolysis; it is as effective as the non-incubated D- Arg Peptide in DU145 cells. D- Arg Peptide was incubated in RPMI media containing 10% FBS at 37°C for 24 hours. DU145 cells were seeded in a 96 well plate at 5000 cells in each well. After 24 hours either the incubated D- Arg Peptide or the non-incubated D- Arg Peptide was added to the cells. B. D- Arg and L-Arg Peptide incubated in 10% FBS RPMI media at 37°C for 24 hours. DU145 cells were seeded in a 96 well plate at 5000 cells in each well. After 24 hours either the incubated D- Arg Peptide or the L- Arg Peptide was added to the cells. The cell viability in both experiments were assessed after another 24 hours by measuring the absorption at 490nm using the MTS tetrazolium Promega CellTitre 96® Aqueous One Solution Cell proliferation assay according to the manufacturer’s instructions. Each time point was done in triplicate and values are represented by mean with standard mean deviation.
The peptide was mixed with the RPMI 1640 medium containing 10% FBS and incubated at 37 °C for 24 hours. Cells were plated in a 96 well plate in 180 μl of the media containing 10% FBS. After 24 hours, 20 μl of either the incubated D- Arg or the regular (fresh) D- Arg Peptide was added to the cell plate and tested after another 24 hours. Then 20 μl of the MTS tetrazolium Promega CellTitre 96® Aqueous One Solution Cell Proliferation Assay was added to each well and incubated for two to three hours. Absorbance was measured at 490 nm as per the manufacturer’s protocol to determine the cell viability.

Burkitt lymphoma cells = details: cited from earlier work
Description: (§1) This unique E2F1 inhibitory peptide with the sequence His-His-His-Arg-Leu-Ser-His, found by phage display, was discovered by its ability to bind tightly to an immobilized consensus E2F1 promoter sequence. Importantly, treatment of tumor xenografts of human small cell lung cancer H69 and human prostate cancer DU14 ...

[1] = tested on: DU145 prostate cancer cells; details: cited from earlier work
Description: as §1

[2] = tested on: pRB negative small cell lung cancer (SCLC) cells; details: cited from earlier work
Description: as §1

[3] = tested on: consensus E2F1 promoter sequence; details: found by phage display; cited from earlier work
Description: as §1

Row | Molecule | Stability in serum: incubated D- Arg versus incubated L- Arg peptide (DU145 cells) | Stability: toxicity of pre-incubated versus fresh non-incubated peptide (DU145 cells) | Cytotoxicity (Burkitt lymphoma cells) | Cytotoxicity [1] | Cytotoxicity [2] | Binding to immobilized consensus E2F1 promoter sequence [3]
1 | CC[C@H](C)[C@H](NC(=O)[C@H](CCCCN)NC(=O)[C@@H](NC(=O)[C@H](CCC(N)=O)NC(=O)[C@@H](N)CCCNC(=N)N)[C@@H](C)CC)C(=O)N[C@@H](Cc1c[nH]c2ccccc12)C(=O)N[C@@H](Cc1ccccc1)C(=O)N[C@@H](CCC(N)=O)C(=O)N[C@@H](CC(N)=O)C(=O)N[C@@H](CCCNC(=N)N)C(=O)N[C@@H](CCCNC(=N)N)C(=O)N[C@@H](CCSC)C(=O)N[C@@H](CCCCN)C(=O)N[C@@H](Cc1c[nH]c2ccccc12)C(=O)N[C@@H](CCCCN)C(=O)N[C@@H](CCCCN)C(=O)N[C@@H](Cc1c[nH]cn1)C(=O)N[C@@H](Cc1c[nH]cn1)C(=O)N[C@@H](Cc1c[nH]cn1)C(=O)N[C@H](CCCNC(=N)N)C(=O)N[C@@H](CC(C)C)C(=O)N[C@@H](CO)C(=O)N[C@@H](Cc1c[nH]cn1)C(=O)O [D-Arg PEP] | more resistant to proteolysis after pre-incubation in serum | as potent as the non-incubated fresh D- Arg PEP |  |  |  | 
2 | CC[C@H](C)[C@H](NC(=O)[C@H](CCCCN)NC(=O)[C@@H](NC(=O)[C@H](CCC(N)=O)NC(=O)[C@@H](N)CCCNC(=N)N)[C@@H](C)CC)C(=O)N[C@@H](Cc1c[nH]c2ccccc12)C(=O)N[C@@H](Cc1ccccc1)C(=O)N[C@@H](CCC(N)=O)C(=O)N[C@@H](CC(N)=O)C(=O)N[C@@H](CCCNC(=N)N)C(=O)N[C@@H](CCCNC(=N)N)C(=O)N[C@@H](CCSC)C(=O)N[C@@H](CCCCN)C(=O)N[C@@H](Cc1c[nH]c2ccccc12)C(=O)N[C@@H](CCCCN)C(=O)N[C@@H](CCCCN)C(=O)N[C@@H](Cc1c[nH]cn1)C(=O)N[C@@H](Cc1c[nH]cn1)C(=O)N[C@@H](Cc1c[nH]cn1)C(=O)N[C@@H](CCCNC(=N)N)C(=O)N[C@@H](CC(C)C)C(=O)N[C@@H](CO)C(=O)N[C@@H](Cc1c[nH]cn1)C(=O)O [L-Arg PEP] | unstable in serum |  | cytotoxic at low micro molar concentrations | cytotoxic at low micro molar concentrations | cytotoxic at low micro molar concentrations | 
3 | HHHRLSH [E2F1 inhibitory peptide, 7-mer peptide His-His-His-Arg-Leu-Ser-His found by phage display] |  |  |  |  |  | bind tightly
